Test results taken from the supplement of paper PMC8253809.

What was measured:
Assay in all cases: growth inhibition relative to DMSO (0) and positive control (1) (fraction); higher = more growth inhibition
HGGX6 [1] = system: HGGX6 (H3.3 G34R paediatric high-grade glioma line)
Experimental: (§1)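 Single-agent arm (compound 2 only) of the paxalisib / mirdametinib dose-matrix plates, 7 days, adherent 384-well. CellTiter-Glo RLU was normalised to fractional activity between DMSO (0) and the positive control (1).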

HABS [2] = system: HABS (astrocyte control)
Experimental: as §1

DIPGX37 [3] = system: DIPGX37 (H3.3 K27M diffuse intrinsic pontine glioma line)
Experimental: as §1

DIPGX7 [4] = system: DIPGX7 (H3.3 K27M diffuse intrinsic pontine glioma line)
Experimental: as §1

HGGX42 [5] = system: HGGX42 (H3.3 G34R paediatric high-grade glioma line)
Experimental: as §1

iASTRO [6] = system: iASTRO (astrocyte control)
Experimental: as §1

DIPGX29 [7] = system: DIPGX29 (H3.3 K27M diffuse intrinsic pontine glioma line)
Experimental: as §1

HGGX6 [8] = system: HGGX6; remark: listed apart in the source
Experimental: (§2)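 Single-agent arm (compound 1 only) of the paxalisib / mirdametinib dose-matrix plates, 7 days, adherent 384-well. CellTiter-Glo RLU was normalised to fractional activity between DMSO (0) and the positive control (1).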

HABS [9] = system: HABS; remark: listed apart in the source
Experimental: as §2

DIPGX37 [10] = system: DIPGX37; remark: listed apart in the source
Experimental: as §2

DIPGX7 [11] = system: DIPGX7; remark: listed apart in the source
Experimental: as §2

HGGX42 [12] = system: HGGX42; remark: listed apart in the source
Experimental: as §2

iASTRO [13] = system: iASTRO; remark: listed apart in the source
Experimental: as §2

DIPGX29 [14] = system: DIPGX29; remark: listed apart in the source
Experimental: as §2

O=C(NOC[C@H](O)CO)c1ccc(F)c(F)c1Nc1ccc(I)cc1F
growth inhibition
Conditions	0.009766 µM	0.01953 µM	0.03906 µM	0.07812 µM	0.15625 µM	0.3125 µM	0.625 µM	1.25 µM	5 µM	20 µM
DIPGX7 [4]	–	–	-0.134	-0.0334	-0.0318	-0.00916	0.0291	0.0919	0.221	0.144
DIPGX7 [11]	0.00514	-0.0128	-0.0429	-0.0583	-0.0706	-0.0675	-0.0189	0.069	0.226	0.169
DIPGX29 [7]	–	–	0.0243	0.134	0.108	0.159	0.301	0.477	0.795	0.903
DIPGX29 [14]	0.0664	0.079	0.113	0.122	0.121	0.185	0.301	0.44	0.787	0.903
DIPGX37 [3]	–	–	-0.168	-0.0488	0.038	0.147	0.274	0.418	0.857	0.9777
DIPGX37 [10]	-0.0815	-0.107	-0.0915	-0.0274	0.0635	0.18	0.339	0.511	0.9225	0.9749
HABS [2]	–	–	-0.334	-0.268	-0.258	-0.201	-0.0364	0.168	0.618	0.797
HABS [9]	-0.13	-0.164	-0.228	-0.269	-0.234	-0.0414	0.126	0.275	0.665	0.853
HGGX6 [1]	–	–	-0.174	-0.0709	-0.0557	0.064	0.133	0.156	0.414	0.596
HGGX6 [8]	-0.059	-0.035	-0.0725	-0.0513	-0.0455	0.0143	0.0902	0.0994	0.353	0.581
HGGX42 [5]	–	–	-0.199	-0.114	-0.121	-0.215	-0.198	-0.0799	0.284	0.494
HGGX42 [12]	-0.0885	-0.0961	-0.107	-0.127	-0.145	-0.165	-0.133	-0.126	0.241	0.441
iASTRO [6]	–	–	0.0464	0.0732	0.0675	0.0849	0.116	0.0295	0.0268	0.058
iASTRO [13]	0.0411	0.0442	0.0806	0.0816	0.113	0.124	0.173	0.119	0.0668	0.0562

CC1(C)OCCn2c1nc1c(N3CCOCC3)nc(-c3cnc(N)nc3)nc12 [GDC0084]
growth inhibition
Conditions	0.009766 µM	0.01953 µM	0.03906 µM	0.07812 µM	0.15625 µM	0.3125 µM	0.625 µM	1.25 µM	5 µM	20 µM
DIPGX7 [4]	–	–	0.051	0.197	0.446	0.658	0.787	0.8579	0.9157	0.9671
DIPGX7 [11]	0.0627	0.0708	0.104	0.186	0.381	0.622	0.771	0.8548	0.9176	0.977
DIPGX29 [7]	–	–	0.0637	0.169	0.232	0.295	0.423	0.603	0.87	0.9389
DIPGX29 [14]	0.073	0.102	0.178	0.216	0.266	0.357	0.491	0.595	0.8914	0.9212
DIPGX37 [3]	–	–	-0.00546	0.192	0.323	0.499	0.598	0.756	0.9558	0.99839
DIPGX37 [10]	-0.0429	-0.0173	0.0381	0.138	0.304	0.453	0.566	0.71	0.9509	0.9986
HABS [2]	–	–	-0.0282	0.105	0.153	0.193	0.29	0.463	0.807	0.9834
HABS [9]	0.075	0.0784	0.0871	0.118	0.171	0.208	0.326	0.489	0.807	0.9807
HGGX6 [1]	–	–	-0.045	0.0144	0.106	0.211	0.329	0.486	0.741	0.872
HGGX6 [8]	-0.0247	-0.0158	0.0132	0.0493	0.125	0.232	0.359	0.507	0.758	0.869
HGGX42 [5]	–	–	0.112	0.274	0.471	0.516	0.673	0.782	0.8721	0.898
HGGX42 [12]	0.0532	0.0705	0.164	0.226	0.378	0.528	0.685	0.777	0.885	0.913
iASTRO [6]	–	–	0.0361	0.0247	0.0269	-0.0092	-0.0383	0.0569	0.631	0.726
iASTRO [13]	0.019	0.0114	0.00198	0.00243	0.00554	-0.0144	-0.0681	-0.0251	0.577	0.706
